Assay results taken from patent US20260007601A1, “IONIZABLE CATIONIC LIPID COMPOUND AND COMPOSITION FOR DELIVERING NUCLEIC ACID AND USE THEREOF” (BEIJING YOUCAREKECHUANG PHARMACEUTICAL TECHNOLOGY CO., LTD., priority 2023, published 2026).

Legend:
[1] = Particle size and polydispersity index (PDI) of nanolipid particles, dynamic light scattering; format: physicochemical; settings: LNP formulation prepared from the named cationic lipid, 25° C
Procedure: The particle size and polydispersity index (PDI) were determined by dynamic light scattering method using a Malvern laser particle size analyzer. 10 μL of liposome solution was diluted to 1 mL with RNase-free deionized water and added to a sample pool. Each sample was measured three times. The measurement conditions were: 90° scattering angle, 25° C.

[2] = Encapsulation rate, drug loading concentration and total RNA concentration detection (RiboGreen); format: physicochemical; settings: LNP formulation of the named lipid
293T cells [3] = assay: Fluorescence detection of Fluc-mRNA (cell transfection efficiency of LNP formulations); format: cell-based; settings: for Relative light unit (RLU): LNP containing 0.3 μg Fluc-mRNA, 24 hours; for Multiples of values that equivalent to YK-201: RLU of YK-201 / RLU of the named lipid; for Multiples of values that equivalent to YK-202: RLU of YK-202 / RLU of the named lipid; for Multiples of values that equivalent to YK-209: RLU of YK-209 / RLU of the named lipid; for Ratio relative to SM-102: RLU of the named lipid / RLU of SM-102, times that of SM-102
Procedure, shortened: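 293T cells at 10,000 per well, adhered overnight, then given LNPs carrying 0.3 μg Fluc-mRNA (cationic:neutral:structured:polymer-conjugated lipid 49:10:39.5:1.5 molar). After 24 h, luciferase signal read with luciferase kit reagents on an IVIS imaging system as transfection efficiency.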

293T cells [4] = assay: Cell survival rate assay (CCK-8); format: cell-based; settings: LNP containing 1.5 μg Fluc-mRNA, 24 hours, CCK-8
Procedure, shortened: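 293T cells seeded at 10,000 per well and grown overnight, then exposed for 24 h to LNPs (cationic/neutral/structured/PEG lipids 49:10:39.5:1.5) carrying 1.5 μg Fluc-mRNA, or Lipofectamine 3000. Viability read by CCK-8, 1 h incubation, absorbance at 450 nm.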

female BALB/C mice = assay: Mouse in vivo imaging of Fluc-mRNA LNP formulations; design: average radiation intensity (mRNA expression): unit not given here; settings: 10 μg Fluc-mRNA LNP intramuscularly
Procedure, shortened: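 Female BALB/C mice (4–6 weeks, 17–19 g) received LNP carrying 10 μg Fluc-mRNA intramuscularly. Imaging substrate given intraperitoneally at 6 h, 24 h, 48 h and 7 d; after 5 min free movement, average radiance read by IVIS Spectrum imaging.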

Row | Compound | PDI [1] [%] | Particle size [1] [nm] | Drug loading concentration [2] [µg/mL] | Encapsulation rate [2] [%] | Total RNA concentration [2] [µg/mL] | Relative light unit (RLU) (293T cells [3]) | Multiples of values that equivalent to YK-201 (293T cells [3]) | Multiples of values that equivalent to YK-202 (293T cells [3]) | Multiples of values that equivalent to YK-209 (293T cells [3]) | Ratio relative to SM-102 (293T cells [3]) | Cell survival rate (293T cells [4]) [%] | average radiation intensity (mRNA expression) (female BALB/C mice; 6 h) | average radiation intensity (mRNA expression) (female BALB/C mice; 24 h) | average radiation intensity (mRNA expression) (female BALB/C mice; 48 h) | average radiation intensity (mRNA expression) (female BALB/C mice; 7 d)
1 | CCCCCCCCCCCOC(=O)CCCCCN(CCCCCCCC(=O)OC(CCCCCCCC)CCCCCCCC)CCN(CC)CCO [YK-204, heptadecan-9-yl-8-(2-((2-hydroxyethyl)(ethylamino))ethyl)(6-oxo-6-((undecanyloxy)hexyl)amino)octanoate] | 17.7 | 193 | 32.62 | 75.9 | 42.98 | 363998 | 78.25 | 82.30 | 57.85 | 0.22 | 42.57 | 35245 | 5230 | 2440 | 754
2 | CCCCCCCCCCCOC(=O)CCCCCN(CCO)CCCCCCCC(=O)OC(CCCCCCCC)CCCCCCCC [SM-102, reference compound] | 19.2 | 145 | 25.44 | 62.3 | 35.27 | 1665874 | 17.10 | 17.98 | – | 1.00 | 68.55 | 678870 | 115800 | 30560 | 5903
3 | CCCCCCCCCCOC(=O)CCCN(CCO)CCCCCC(=O)OCC(CCCCCCCC)CCCCCCCC [YK-009, reference compound] | 13.0 | 202 | 26.86 | 63.0 | 38.62 | 5125986 | 5.56 | 5.84 | 5.24 | 3.08 | 72.88 | 1012400 | 767850 | 128570 | 10741
4 | CCCCCCCCCCOC(=O)CCCN(CCCCCC(=O)OCCC(CCCCCC)CCCCCC)CCOC(=O)SCCCN(C)C [YK-217, 3-hexylnonyl-11-(4-(decyloxy)-4-oxobutyl)-2-methyl-7-oxo-8-oxo-6-thio-2,11-diazaheptane-17-carboxylate] | 17.9 | 210 | 42.19 | 90.4 | 46.66 | 71850 | 396.42 | 416.94 | 293.09 | 0.04 | 42.27 | 24585 | 2650 | 1024 | 523
5 | CCCCCCCCC(CCCCCC)C(=O)OCCCCCCN(CCCCO)CCCCCCOC(=O)C(CCCCCC)CCCCCCCC (centres unmarked) [ALC-0315, reference compound] | 15.9 | 218 | 26.05 | 62.8 | 37.12 | 2147045 | 13.27 | 13.95 | 12.51 | 1.29 | 49.96 | 842355 | 182350 | 38130 | 6588
